From the supplement of paper PMC3068080

Assays:
TGFBR1 mRNA [1] = assay: remaining TGFBR1 mRNA relative to control siRNA (off-target knock-down) (fraction of control); quantification method: branched DNA (R1), qPCR (R2); higher = less knock-down
Protocol: (§1)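 Screen-hit siRNA duplexes (19-mer plus 3' dTdT overhang) were transiently transfected into HaCaT cells in 12-well plates. After 48 h, TGFBR1 and TGFBR2 mRNA were quantified by branched DNA assay (QuantiGene, normalised to HPRT1) or by SYBR qPCR (normalised to HPRT1/SMAD4). Values are the remaining mRNA relative to control-siRNA-transfected cells; 1-2 biological replicates.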

TGFBR2 mRNA [2] = assay: remaining TGFBR2 mRNA relative to control siRNA (off-target knock-down) (fraction of control); quantification method: branched DNA (R1), qPCR (R2); higher = less knock-down
Protocol: as §1

TGFBR1 mRNA [3] = assay: remaining TGFBR1 mRNA relative to control siRNA (off-target knock-down) (fraction of control); quantification method: qPCR; higher = less knock-down
Protocol: as §1

TGFBR2 mRNA [4] = assay: remaining TGFBR2 mRNA relative to control siRNA (off-target knock-down) (fraction of control); quantification method: qPCR; higher = less knock-down
Protocol: as §1

TGFBR2 mRNA [5] = assay: remaining TGFBR2 mRNA relative to control siRNA (off-target knock-down) (fraction of control); quantification method: branched DNA; higher = less knock-down
Protocol: as §1

TGFBR1 mRNA [6] = assay: remaining TGFBR1 mRNA relative to control siRNA (off-target knock-down) (fraction of control); quantification method: branched DNA; higher = less knock-down
Protocol: as §1

Row | Sequence | remaining TGFBR2 mRNA (TGFBR2 mRNA [5]) | remaining TGFBR1 mRNA (TGFBR1 mRNA [6]) | also measured
1 | UUAUUUGGGUGGGCUGGGGTT |  |  | remaining TGFBR1 mRNA (TGFBR1 mRNA [1]): 0.98; remaining TGFBR2 mRNA (TGFBR2 mRNA [2]): 0.75
2 | AACACCAUCUACUUGAUGGTT |  |  | remaining TGFBR1 mRNA (TGFBR1 mRNA [1]): 1.31; remaining TGFBR2 mRNA (TGFBR2 mRNA [2]): 0.78
3 | AACUGGUUCAGGUACUUCCTT |  |  | remaining TGFBR1 mRNA (TGFBR1 mRNA [1]): 0.95; remaining TGFBR2 mRNA (TGFBR2 mRNA [2]): 0.71
4 | UGCACCUGACUUUUCUCUGTT |  |  | remaining TGFBR1 mRNA (TGFBR1 mRNA [1]): 1.37; remaining TGFBR2 mRNA (TGFBR2 mRNA [2]): 0.72
5 | CUCUGGGGAUUUGGAGGAUTT |  |  | remaining TGFBR1 mRNA (TGFBR1 mRNA [1]): 1.07; remaining TGFBR2 mRNA (TGFBR2 mRNA [2]): 0.71
6 | UGUCUCCUCUCUUGUCCGUTT |  |  | remaining TGFBR1 mRNA (TGFBR1 mRNA [1]): 0.95; remaining TGFBR2 mRNA (TGFBR2 mRNA [2]): 0.7
7 | AUGAUGUCAUCGGCUGUGGTT |  |  | remaining TGFBR1 mRNA (TGFBR1 mRNA [3]): 0.68; remaining TGFBR2 mRNA (TGFBR2 mRNA [4]): 0.15
8 | AUCCUGCAGAAUCACGUCCTT |  |  | remaining TGFBR1 mRNA (TGFBR1 mRNA [1]): 0.93; remaining TGFBR2 mRNA (TGFBR2 mRNA [2]): 0.7
9 | AUAAGCAGUAAGUAGCUGGTT | 0.99 | 0.5 | 
10 | UGGCCGUCAAUGUAUUUCUTT | 0.7 | 1.25 | 
11 | AUAAGCAGUGAGAACGAGCTT | 1.26 | 0.5 | 
12 | CUCCUUGGCACACUUCUCATT | 0.34 | 0.93 | 
13 | AAUCCUCUGGUGACUGCUGTT | 0.54 | 1.13 | 
14 | UCCUUGGUCCAUUAGGAGATT | 0.22 | 0.61 | 
15 | AGGCAACAGGGAUGAGAUGTT | 0.2 | 0.93 | 
16 | ACUACGACUCAGUGCCUGGTT |  |  | remaining TGFBR1 mRNA (TGFBR1 mRNA [1]): 1; remaining TGFBR2 mRNA (TGFBR2 mRNA [2]): 0.7
17 | UGAAGACAGUCCUAUGGACTT | 0.97 | 0.42 | 
18 | UUUGGACUGGUUGGCACAGTT | 0.69 | 1.11 | 
19 | AGCUUAUCCAACAGACGUCTT | 0.29 | 1.07 | 
20 | AUGUGUACAGCCCUCUUCCTT |  |  | remaining TGFBR1 mRNA (TGFBR1 mRNA [1]): 1.84; remaining TGFBR2 mRNA (TGFBR2 mRNA [2]): 0.65
21 | GAAGGUGUGAGUGAGGUCATT | 1.17 | 0.19 | 
22 | AAGUCUGACUCGGUAAGUATT | 0.72 | 0.87 | 
23 | UCCCGUACUGGUUCUGGGGTT | 0.81 | 1.1 | 

Row | Sequence | remaining TGFBR2 mRNA (TGFBR2 mRNA [5]) | remaining TGFBR1 mRNA (TGFBR1 mRNA [6]) | also measured
24 | AGACGGCAAACGACUGUCCTT |  |  | remaining TGFBR1 mRNA (TGFBR1 mRNA [1]): 1.27; remaining TGFBR2 mRNA (TGFBR2 mRNA [2]): 0.75
25 | AUAUUCCGUAAAACGAACATT | 0.38 | 0.77 | 
26 | UCCAAGUCGAGAAGAGACCTT | 0.46 | 0.9 | 
27 | UUAUUGGGCAAAAUCCGGGTT | 0.72 | 0.88 | 
28 | GAUGAAGAAGAGCGCAGCATT | 1.08 | 1.27 | 
29 | CAGUCUCAUCGUCCUCAUCTT | 0.69 | 1.07 | 
30 | GGAAGUGUCAUGGAAGGUGTT | 0.29 | 0.7 | 
31 | ACUGGAUCAGUCGCAGAAUTT | 0.38 | 1.15 | 
32 | AGCUCAAACAGUAUCUGGUTT |  |  | remaining TGFBR1 mRNA (TGFBR1 mRNA [1]): 1.45; remaining TGFBR2 mRNA (TGFBR2 mRNA [2]): 0.7
33 | AUGGUGUGGCUCGUCGUGCTT | 0.46 | 0.45 | 
34 | UGAUGUUGAUCUGGGGCACTT | 0.54 | 0.55 | 
35 | UCCAGCUGUUUCGUUCCUCTT | 0.36 | 0.85 | 
36 | UGAUAGCACCAACACAAAGTT | 0.74 | 0.44 | 
37 | UUAUCCUGAUCACGUCUAGTT | 0.14 | 0.65 | 
38 | UCAACAAGCUAAGUCUGCCTT | 0.72 | 1.1 | 
39 | UGGGCUUUUCUCUUCUCUCTT | 1.43 | 1.47 | 
40 | UUAUAAGCCAAAGUGCGUCTT | 1.66 | 0.6 | 
41 | UGGAAGACGCUUUAAAGGCTT | 0.48 | 0.85 | 
42 | AGCCAGAAACUCAGACACCTT | 0.67 | 0.99 | 
43 | UGAUGUUGUCUUGUCUGGUTT | 0.42 | 0.44 | 
44 | UCAAGGUGGACAAAGCUCUTT | 0.29 | 0.74 | 
45 | UUUCCUGGCCUCCUGGAACTT | 0.29 | 0.94 | 
46 | UCAUAGCUCUGGCAUCGUCTT | 0.41 | 1.11 | 
